Reference: patent publication US12559489B2, “Antagonistic small molecule compound having toll-like receptor 7/9 inhibitory function” (AJOU UNIVERSITY INDUSTRY-ACADEMIC COOPERATION FOUNDATION, priority 2020, dated 2026)
Where two headings read alike, the source gives them in different places.

Tests used:
TLR7 = biological target: T1, TLR7 (Mus musculus, UniProt P58681); test: Inhibition of IMQ (TLR7 agonist)-induced TNF-α secretion in RAW264.7 cells, ELISA; assay type: cell-based, murine; conditions: for inhibition of secretion of TLR7-induced TNF-α: in the presence of IMQ, 1, 10 or 50 μM, ELISA (FIG. 7B and 7C)
T1 construct: host or cells: RAW264.7 murine macrophages
T1 sequence (P58681 27-1050): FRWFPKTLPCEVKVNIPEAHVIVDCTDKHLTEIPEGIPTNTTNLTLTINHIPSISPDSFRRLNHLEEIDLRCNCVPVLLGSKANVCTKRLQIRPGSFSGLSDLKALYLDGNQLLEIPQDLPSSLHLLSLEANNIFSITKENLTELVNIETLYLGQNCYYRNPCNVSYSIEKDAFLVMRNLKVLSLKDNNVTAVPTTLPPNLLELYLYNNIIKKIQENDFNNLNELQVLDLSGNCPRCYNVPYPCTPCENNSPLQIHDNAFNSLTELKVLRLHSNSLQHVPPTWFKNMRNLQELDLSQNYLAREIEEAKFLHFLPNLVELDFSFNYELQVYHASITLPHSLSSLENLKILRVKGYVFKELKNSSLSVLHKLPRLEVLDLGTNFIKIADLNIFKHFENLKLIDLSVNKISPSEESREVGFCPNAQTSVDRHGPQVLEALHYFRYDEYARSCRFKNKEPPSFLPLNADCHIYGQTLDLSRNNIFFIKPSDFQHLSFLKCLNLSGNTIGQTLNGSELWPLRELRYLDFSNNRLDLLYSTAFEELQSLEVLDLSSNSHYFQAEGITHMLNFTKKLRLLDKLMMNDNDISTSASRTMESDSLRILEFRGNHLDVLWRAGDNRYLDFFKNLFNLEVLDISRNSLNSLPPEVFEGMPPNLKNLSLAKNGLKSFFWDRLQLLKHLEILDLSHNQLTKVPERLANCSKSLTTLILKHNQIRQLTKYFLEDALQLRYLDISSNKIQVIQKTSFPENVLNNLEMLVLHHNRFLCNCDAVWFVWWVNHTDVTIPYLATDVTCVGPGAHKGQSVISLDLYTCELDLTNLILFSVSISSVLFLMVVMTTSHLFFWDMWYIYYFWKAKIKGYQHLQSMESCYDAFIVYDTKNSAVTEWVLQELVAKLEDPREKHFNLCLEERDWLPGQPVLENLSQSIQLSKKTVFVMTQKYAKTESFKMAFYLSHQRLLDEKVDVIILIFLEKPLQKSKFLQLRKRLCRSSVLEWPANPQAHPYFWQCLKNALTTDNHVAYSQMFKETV
Procedure: (§1) RAW264.7 cells, which are murine macrophages (ATCC, Manassas, VA, USA), were incubated in low-glucose DMEM (Thermo Fisher Scientific Inc.) supplemented with 10% FBS, 100 IU/ml of penicillin and 100 μg/ml of streptomycin in an incubator. Imiquimod (IMQ; TLR7 agonist) and CpG-ODN (ODN 2395; TLR9 agonist) were obtained from InvivoGen (San Diego, CA, USA), and hydroxychloroquine (HCQ; endosomal TLRs inhibitor) was obtained from Sigma Aldrich Co. (St. Louis, MO, USA).
(§2) RAW264.7 cells were incubated along with 1, 10 or 50 μM of a compound. After 24 hours, MTT (3-(4,5-dimethylthiazol-2-yl)-2,5-diphenyltetrazolium bromide) assay and enzyme-linked immunosorbent assay (ELISA) were sequentially performed.
(§3) ODN 2395 was used as a ligand to activate TLR9 and IMQ was used to induce TLR7 activity. The inhibitory effects of TAC5-050 and TAC5-051 against TLR9 or TLR7 were determined. HCQ, which is known to inhibit endosomal TLRs, was used as a control group. Since the median inhibitory concentration was expected to range from 50 and 20 μM, the concentration range was set to decrease by half from the high concentration (50 μM) to the low concentration ([…]).
(§4) RAW264.7 cells (2×10^4 cells/well) were treated with small molecule compounds and HCQ for 1 hour (0.25% DMSO), incubated and then treated with ODN 2395 (0.5 μM) or IMQ (1 μg/ml) for 4 hours. Then, the ELISA for detecting mTNF-α was performed in accordance with the following protocol: • 1. Transfer samples from 96 well cell culture plate to elisa coated plate) and incubate for 2 h • 2. Treat detection antibody and incubate for 1 h • 3. Treat HRP and incubate for 30 min • 4. Treat TMB and read the samples by using micro-plate reader machine

TLR9 = biological target: T2, TLR9 (Mus musculus, UniProt Q9EQU3); test: Inhibition of ODN 2395 (TLR9 agonist)-induced TNF-α secretion in RAW264.7 cells, ELISA; assay type: cell-based, murine; conditions: for inhibition of secretion of TLR9-induced TNF-α: in the presence of ODN 2395, 1, 10 or 50 μM, ELISA (FIG. 7B and 7C)
T2 construct: host or cells: RAW264.7 murine macrophages
T2 sequence (Q9EQU3 26-1032): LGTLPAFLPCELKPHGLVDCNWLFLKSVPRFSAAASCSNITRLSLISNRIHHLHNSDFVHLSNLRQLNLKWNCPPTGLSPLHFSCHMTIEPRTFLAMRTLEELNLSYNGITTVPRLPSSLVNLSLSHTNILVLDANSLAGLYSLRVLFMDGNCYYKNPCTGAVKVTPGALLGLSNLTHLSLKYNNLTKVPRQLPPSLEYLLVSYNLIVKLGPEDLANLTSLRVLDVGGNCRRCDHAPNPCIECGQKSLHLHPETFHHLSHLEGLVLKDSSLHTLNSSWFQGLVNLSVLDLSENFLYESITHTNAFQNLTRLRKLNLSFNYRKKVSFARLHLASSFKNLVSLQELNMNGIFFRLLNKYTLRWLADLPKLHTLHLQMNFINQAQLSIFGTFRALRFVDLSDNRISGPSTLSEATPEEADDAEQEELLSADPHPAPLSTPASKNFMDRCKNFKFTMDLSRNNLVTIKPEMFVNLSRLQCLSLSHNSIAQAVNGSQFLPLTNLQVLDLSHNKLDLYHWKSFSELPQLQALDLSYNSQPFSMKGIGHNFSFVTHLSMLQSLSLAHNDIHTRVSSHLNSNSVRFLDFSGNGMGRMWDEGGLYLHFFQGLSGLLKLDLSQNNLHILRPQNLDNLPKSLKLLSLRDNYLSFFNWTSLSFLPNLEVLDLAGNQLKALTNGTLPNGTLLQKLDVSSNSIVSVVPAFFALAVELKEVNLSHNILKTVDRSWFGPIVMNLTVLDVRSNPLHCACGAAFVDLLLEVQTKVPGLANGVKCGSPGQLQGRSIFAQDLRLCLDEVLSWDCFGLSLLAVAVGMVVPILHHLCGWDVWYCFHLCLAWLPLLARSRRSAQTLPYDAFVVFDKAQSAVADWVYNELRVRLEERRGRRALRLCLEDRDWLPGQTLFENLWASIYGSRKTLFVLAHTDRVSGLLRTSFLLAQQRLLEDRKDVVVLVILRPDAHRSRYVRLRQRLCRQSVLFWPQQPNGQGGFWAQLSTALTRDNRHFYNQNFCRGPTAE
Procedure: as §1, §2, §3, §4

RAW264.7 cells = test: MTT cytotoxicity assay in RAW264.7 cells; assay type: cell-based, murine; conditions: RAW264.7 cells, 1, 10 and 50 μM, 24 hours (FIG. 7A)
Procedure: as §1, §2

[1] = Solubility noted during preparation; assay type: physicochemical; conditions: remark in the preparation example, no medium stated
Procedure: 0.5 g (4.2 mmol) of […] was dissolved in 50 ml of MC, and 2.8 g (21 mmol, 5 eq) of AlCl3 was added thereto, followed by stirring at room temperature for 1 hour. A solution of 2.28 g (12.3 mmol) of p-nitrobenzoyl chloride in 10 ml of MC was added dropwise to the reaction solution at room temperature. The mixture was stirred overnight. When the reaction was completed, the reactor containing the concentrated residue was placed in an ice bath, 30 g of ice water was added thereto, and then stirred for 1 hour. Then, the result was filtered and washed with water. The solid was dissolved in 30 mL of MC and 10 mL of MeOH, and washed with 30 mL of Sat'd NaHCO3, and the layers were separated. The MC layer was washed with water, and the organic layer was dried over MgSO4, filtered, and concentrated under reduced pressure. After refluxing in 20 ml of IPA, the result was stirred at room temperature for 1 hour and then filtered. The solid was refluxed in 20 ml of MC, stirred at room temperature for 1 hour, and filtered to prepare 85 mg of (3-nitro-phenyl)-(1H-pyrrolo[2,3-b]pyridin-3-yl)-methanone (yield: 7.5%). However, it was not easy to remove impurities, so the yield was low and solubility was also low.

Compound | inhibition of secretion of TLR7-induced TNF-α (TLR7; RAW264.7 cells) | inhibition of secretion of TLR9-induced TNF-α (TLR9; RAW264.7 cells) | cytotoxicity (MTT assay) (RAW264.7 cells) | also measured
CC(C)n1cc(C(=O)c2ccccc2)c2cccnc21 [TAC5-050, (1-Isopropyl-1H-pyrrolo[2,3-b]pyridin-3-yl)-phenyl-methanone] | inhibited the secretion of TLR7- or TLR9-induced TNF-α in a dose-dependent manner | inhibited the secretion of TLR7- or TLR9-induced TNF-α in a dose-dependent manner | non-cytotoxic | IC50 (TLR7): 24 µM; IC50 (TLR9): 53.1 µM
O=C(c1ccccc1)c1cn(S(=O)(=O)c2ccccc2)c2ncccc12 [TAC5-051, (1-Benzenesulfonyl-1H-pyrrolo[2,3-b]pyridin-3-yl)-phenyl-methanone] | inhibited the secretion of TLR7- or TLR9-induced TNF-α in a dose-dependent manner | inhibited the secretion of TLR7- or TLR9-induced TNF-α in a dose-dependent manner | non-cytotoxic | IC50 (TLR7; RAW264.7 cells, compound 1 hour, then IMQ (1 μg/ml) 4 hours, mTNF-α ELISA (FIG. 9), read-out: IC50 for TLR7): 10.8 µM; IC50 (TLR9; RAW264.7 cells, compound 1 hour, then ODN 2395 (0.5 μM) 4 hours, mTNF-α ELISA (FIG. 8), read-out: IC50 for TLR9): 13.8 µM
O=C(c1cccc([N+](=O)[O-])c1)c1c[nH]c2ncccc12 [TAC5-052, (3-Nitro-phenyl)-(1H-pyrrolo[2,3-b]pyridin-3-yl)-methanone] |  |  | cytotoxic | solubility [1]: low
O=C(c1ccc(Cl)c(Cl)c1)c1c[nH]c2ncccc12 [TAC5-053, (3,4-Dichloro-phenyl)-(1H-pyrrolo[2,3-b]pyridin-3-yl)-methanone] |  |  | cytotoxic | 
O=C(c1ccc(Cl)c(F)c1)c1c[nH]c2ncccc12 [TAC5-054, (4-Chloro-3-fluoro-phenyl)-(1H-pyrrolo[2,3-b]pyridin-3-yl)-methanone] |  |  | cytotoxic | 
O=C(c1ccccc1)c1c[nH]c2ncc(Cl)cc12 [TAC5-055, (5-Chloro-1H-pyrrolo[2,3-b]pyridin-3-yl)-phenyl-methanone] |  |  | cytotoxic | 
